Laboratory results: patent publication US7799757B2, “Analogs of parathyroid hormone and PTH-related protein as bone anabolic agents” (priority 2002, dated 2010)
Non-standard residues stand in square brackets, D forms with d. Residues, ends and D or L forms follow the SMILES beside them. No end group written: not given here. 2Nal = N[C@@H](Cc1ccc2ccccc2c1)C(=O)O; 2Thi = N[C@@H](Cc1cccs1)C(=O)O; β3hL = CC(C)C[C@H](N)CC(=O)O; Nle = CCCC[C@H](N)C(=O)O; βAla = NCCC(=O)O

Tests used:
SaOS-2/B10 cells = type: binding; conditions: 2 h
Method: SaOS-2/B10 cells were maintained in RPMI1640 medium supplemented with 10% fetal bovine serum (FBS) and 2 mM glutamine at 37° C. in a humidified atmosphere of 5% CO2 in air. The medium was changed every three to four days, and the cells were subcultured every week by trypsinization.
SaOS-2/B10 cells were maintained for four days after they had reached confluence. The medium was replaced with 5% FBS […] medium and incubated for 2 hrs at room temperature with 10×10^4 cpm mono-^125I-[Nle^8,18,Tyr^34(3-^125I)]bPTH(1-34)NH2 in the presence or absence of a competing tested polypeptide of the invention. The cells were washed four times with ice-cold PBS and lysed with 0.1M NaOH, and the radioactivity associated with the cells was counted in a scintillation counter. Synthesis of the radiolabelled [Nle^8,18,Tyr^34(3-^125I)]bPTH(1-34)NH2 was carried out as described in Goldman M. E., et al., Endocrinology, (1988), 123, 1468-1475.
The binding assay was conducted on the polypeptides of the invention having SEQ ID NO:5, 6, 7, 9, 10, 11, and 12.

[1] = tested on: adenylate cyclase in SaOS-2/B10 cells; assay: Stimulation of adenylate cyclase activity in SaOS-2/B10 cells; type: cell-based; conditions: 1 mM IBMX, 5 min incubation, read-out: EC50 (half maximal stimulation of adenylate cyclase)
Method: The adenylate cyclase activity induced by each of the tested polypeptides of the invention was also measured in SaOS-2/B 10 cells as described previously (Rodain et al., J. Clin. Invest. (1983) 72,1511; Goldman, et al., Endocrinology (1988) 123, 1468). Conflúnt SaOS-2/B10 cells in 24 wells plates were incubated with 0.5 μCi [^3H]adenine (26.9 Ci/mmol, New England Nuclear, Boston, Mass. in fresh medium at 37° C. for 2 hrs. and washed twice with Hank's solution. The cells were treated with 1 mM IBMX (isobutylmethylxanthine, Sigma, St. Louis, Mo.) in fresh medium for 15 min. and a tested PTH analog was added to the medium to incubate for 5 min. The reaction was stopped by the addition of 1.2M TCA followed by sample neutralization with 4N KOH. Cyclic AMP was isolated by the two-column chromatographic method (Salomon, et al., Anal. Biochem. (1974) 58, 541). The radioactivity was counted in a scintillation counter (Liquid scintillation counter 2200CA, PACKARD, Downers Grove, Ill.).

[2] = tested on: PTH-stimulated adenylate cyclase; conditions: background, literature report; cited from earlier work
[3] = biological target: T1, recombinant hPTH1-receptor (Homo sapiens, UniProt Q03431); assay: Radioreceptor competition binding, 125I-PTH(1-34), HEK293/C21 cells; conditions: 125I-PTH(1-34) ~0.1 nM, 2 h at room temperature
T1 construct: expressed in transfected cells
T1 sequence (Q03431 27-593): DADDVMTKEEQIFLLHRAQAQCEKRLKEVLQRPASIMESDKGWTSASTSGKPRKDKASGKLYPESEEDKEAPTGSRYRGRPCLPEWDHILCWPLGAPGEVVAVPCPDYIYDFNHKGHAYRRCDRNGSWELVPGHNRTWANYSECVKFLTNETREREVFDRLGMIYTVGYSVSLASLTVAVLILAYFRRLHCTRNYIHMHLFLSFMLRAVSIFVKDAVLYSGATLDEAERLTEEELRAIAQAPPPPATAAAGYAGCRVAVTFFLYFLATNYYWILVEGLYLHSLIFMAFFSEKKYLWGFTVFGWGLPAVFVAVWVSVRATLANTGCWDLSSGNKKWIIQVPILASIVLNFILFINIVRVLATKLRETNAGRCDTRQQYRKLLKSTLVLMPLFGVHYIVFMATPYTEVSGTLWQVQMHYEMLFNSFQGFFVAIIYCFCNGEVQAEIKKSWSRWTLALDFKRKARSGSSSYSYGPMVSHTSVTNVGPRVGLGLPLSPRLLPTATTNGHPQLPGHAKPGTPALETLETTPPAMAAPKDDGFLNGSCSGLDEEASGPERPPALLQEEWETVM
Method: Human embryonic kidney (HEK293) cells, stably transfected with recombinant hPTH1-receptor (HEK293/C21 cell line, ˜400,000 receptors/cell) (Pines, M., Adams, A. E., Stueckle, S., Bessalle, R., Rashti-Behar, V., Chorev, M., Rosenblatt, M., and Suva, L. J. Endocrinology 1994, 135, 1713-1716), were maintained in D-MEM medium supplemented with 10% fetal bovine serum and […] glutamine at 37° C. in a humidified atmosphere of 95% air/5% CO2. The medium was changed every 3-4 days, and the cells were subcultured every week. Ligand stimulated adenylyl cyclase activity and radioreceptor competition binding assays were performed on confluent cultures, 1-3 days after a change of medium.
[Nle^8,18,Nal^23,Tyr^34]bPTH(1-34)-NH2 was radioiodinated and the crude material was purified as previously described (Roubini, E., Duong, L. T., Gibbons, S. W., Leu, C. T., Caulfield, M. P., Chorev, M., and Rosenblatt, M. Biochemistry 1992, 31, 4026-4033). […] The pure mono-radioiodinated peptide was isolated on an analytical RP-HPLC Vydac Protein C18 column (The Separation Group, Hesperia, Calif.) employing a linear gradient of 36-42% B in A for 30 min (A, 0.1% TFA in water; B, 0.1% TFA in acetonitrile) at a flow rate of 1 mL/min, and monitored at 220 nm. […]

renal PTH receptors = conditions: background, literature report; cited from earlier work

Row | Compound | IC50 (SaOS-2/B10 cells) | EC50 [1] | other results
1 | AVSEHQLLHDKGKSIQDLRRRELLEKLLELLHTA-NH2 [SEQ ID NO: 10, [Glu^22,25,29,Leu^23,28,30,31,Lys^26]hPTHrP(1–34)NH2] | 70 nM | 5 nM | –
2 | PTH(1 -25) (SVSEIQLMHNLGKHLNSMERVEWLR; Parathyroid hormone; UniProt P01270 32-56, looked up, fragment) [carboxyl-terminally truncated PTH fragment of residues 1-25] | – | – | activity of carboxyl-terminally truncated PTH [2]: essentially inactive
3 | AVSEHQLLHDKGKSIQDLRRREFLEKLIEKIHTA-NH2 [SEQ ID NO: 12, [Glu^22,25,29,Lys^26,30]hPTHrP(1–34)NH2] | 5.5 nM | 0.42 nM | –
4 | CCCC[C@H](NC(=O)[C@H](Cc1ccccc1)NC(=O)[C@H](CCC(N)=O)NC(=O)[C@@H](NC(=O)[C@H](CCC(=O)O)NC(=O)[C@H](CO)NC(=O)[C@@H](NC(=O)[C@H](C)N)C(C)C)[C@@H](C)CC)C(=O)N[C@@H](Cc1c[nH]cn1)C(=O)N[C@@H](CC(N)=O)C(=O)N[C@@H](CC(C)C)C(=O)NCC(=O)N[C@@H](CCCCN)C(=O)N[C@@H](Cc1c[nH]cn1)C(=O)N[C@@H](CC(C)C)C(=O)N[C@@H](CO)C(=O)NCCC(=O)N[C@H](CC(=O)NCCC(=O)N[C@@H](CCCNC(=N)N)C(=O)N[C@H](C(=O)N[C@@H](CCC(=O)O)C(=O)N[C@@H](Cc1ccc2ccccc2c1)C(=O)N[C@@H](CC(C)C)C(=O)N[C@@H](CCCNC(=N)N)C(=O)N[C@@H](CCCCN)C(=O)N[C@@H](CCCCN)C(=O)N[C@@H](CC(C)C)C(=O)N[C@@H](CCC(N)=O)C(=O)N[C@@H](CC(=O)O)C(=O)N[C@H](C(=O)N[C@@H](Cc1c[nH]cn1)C(=O)N[C@@H](CC(N)=O)C(=O)N[C@@H](Cc1ccc(O)cc1)C(N)=O)C(C)C)C(C)C)CC(C)C [SEQ ID NO: 17, [Nle^8,β-Ala^17,19,β-hLeu^18,Nal^23,Tyr^34]bPTH(1–34)NH2] (H-AVSEIQF[Nle]HNLGKHLS[βAla][β3hL][βAla]RVE[2Nal]LRKKLQDVHNY-NH2; N-terminus assumed) | – | – | IC50 [3]: > 1000 nM
5 | PTH(25-34) (RKKLQDVHNF; Parathyroid hormone; UniProt P01270 56-65, looked up, fragment) [PTH fragment of residues 25-34] | – | – | receptor binding / affinity for renal PTH receptors (renal PTH receptors): weak receptor binding activity
6 | SVSEIQLMHNLGKHLNSMERVELLRKLLQDLHNF-NH2 [SEQ ID NO: 7, [Leu^23,27,31]hPTH(1–34)NH2] | 41 nM | 1.12 nM | –
7 | SVSEIQLMHNLGKHLNSMERVEWLEKKLEKVHNF-NH2 [SEQ ID NO: 6, [Glu^25,29,Lys^30]hPTH(1–34)NH2] | 30 nM | 25.5 nM | –
8 | SVSEIQLMHNLGKHLNSMERVELLEKLLEKLHNF-NH2 [SEQ ID NO: 5, [Glu^25,29,Leu^23,27,31,Lys^30]hPTH(1–34)NH2] | 216 nM | 24 nM | –
9 | CC[C@H](C)[C@H](NC(=O)[C@H](CO)NC(=O)[C@H](CCCCN)NC(=O)CNC(=O)[C@H](CCCCN)NC(=O)[C@H](CC(=O)O)NC(=O)[C@H](Cc1c[nH]cn1)NC(=O)[C@H](CC(C)C)NC(=O)[C@H](CC(C)C)NC(=O)[C@H](CCC(N)=O)NC(=O)[C@H](Cc1c[nH]cn1)NC(=O)[C@H](CCC(=O)O)NC(=O)[C@H](CO)NC(=O)[C@@H](NC(=O)[C@H](C)N)C(C)C)C(=O)N[C@@H](CCC(N)=O)C(=O)N[C@@H](CC(=O)O)C(=O)N[C@@H](CC(C)C)C(=O)N[C@@H](CCCNC(=N)N)C(=O)N[C@@H](CCCNC(=N)N)C(=O)N[C@@H](CCCNC(=N)N)C(=O)N[C@@H](CCC(=O)O)C(=O)N[C@@H](CC(C)C)C(=O)N[C@@H](CC(C)C)C(=O)N[C@@H](CCC(=O)O)C(=O)N[C@@H](CCCCN)C(=O)N[C@@H](CC(C)C)C(=O)N[C@@H](CC(C)C)C(=O)N[C@@H](CCC(=O)O)C(=O)N[C@@H](CCCCN)C(=O)N[C@@H](CC(C)C)C(=O)N[C@@H](Cc1cccs1)C(=O)N[C@H](C(=O)N[C@@H](C)C(N)=O)[C@@H](C)O [SEQ ID NO: 9, [Glu^22,25,29,Leu^23,28,31,Lys^26,30,Thi^32]hPTHrP(1–34)NH2] (H-AVSEHQLLHDKGKSIQDLRRRELLEKLLEKL[2Thi]TA-NH2; N-terminus assumed) | 90 nM | 10 nM | –
10 | AVSEHQLLHDKGKSIQDLRRRFLLHHLLAELHTA-NH2 [SEQ ID NO: 11, [Leu^23,28,31]hPTHrP(1–34)NH2] | 18.3 nM | 0.74 nM | –
11 | [Tyr^34]bPTH(7-34)NH2 | – | – | agonist activity [2]: does not have any agonist activity; receptor binding / affinity for renal PTH receptors (renal PTH receptors): moderate affinity
